Measured values reported in patent US20100190788A1, “Amide derivatives as kinase inhitors” (priority 2005, published 2010).

target: T1, human ROCKα/ROCKII mix (Homo sapiens, UniProt O75116); assay: ROCK inhibition, fluorescence polarization (FP) assay with ROCK IMAP Kit; assay type: biochemical; settings: Table 1, compounds of Formula IV20
T1 construct: purchased Upstate Biotechnology 14-451
Experimental: The compounds were tested for inhibition of human ROCKα/ROCKII mix.
The inhibition assays were performed with a fluorescence polarization (FP) assay using the commercially available ROCK IMAP Kit from Molecular Devices (Product ID. No. R8093), essentially in accordance with the protocol supplied by the manufacturer. […] The enzyme mix ROCKα/ROCKII was obtained from Upstate Biotechnology (Product ID No 14-451).
In summary, all compounds were screened in the wells of a 384 well plate for enzymatic inhibition with concentrations varying from 100 μM to 0.3 nM using a stepwise 3 (or 2)-fold dilution.
To perform the assay, 1 μl of a solution of the compound to be tested in DMSO (at each concentration) was added to 2 μl of a solution of the enzyme in 10 mM Tris-HCl, 10 mM MgCl2, 0.1% BSA, 0.05% NaN3, pH 7.2. The final concentration of the enzyme was 2.6 nM.
After incubating for 30 minutes at RT, 2 μl of a mixture of ATP and the protein substrate in 10 mM Tris-HCl, 10 mM MgCl2, 0.1% BSA, 0.05% NaN3, pH 7.2 was added. The final concentration of the ATP was 10 μM and final concentration of protein substrate was 0.2 μM.
After incubating for 60 minutes at RT, 12 μl of the IMAP Binding Solution (mix of the IMAP Binding Buffer A (1×) and the IMAP Binding Reagent (from the ROCK IMAP kit)) was added.
The mixture thus obtained (total volume: 17 μl) was incubated for 60 minutes at RT, upon which the fluorescence polarization was measured using an automated plate reader (Perkin Elmer, Model Envision 2100-0010 HTS) with FP filters: excitation filter FITC FP 480 and emission filters FITC FP P-pol 535 and FITC FP S-pol 535 (Perkin-Elmer). The results were fitted to a curve using the XL-Fit algorithm and IC50 values were calculated for each fitted curve, again using the XL-Fit algorithm.

T1 sequence (O75116 whole entry): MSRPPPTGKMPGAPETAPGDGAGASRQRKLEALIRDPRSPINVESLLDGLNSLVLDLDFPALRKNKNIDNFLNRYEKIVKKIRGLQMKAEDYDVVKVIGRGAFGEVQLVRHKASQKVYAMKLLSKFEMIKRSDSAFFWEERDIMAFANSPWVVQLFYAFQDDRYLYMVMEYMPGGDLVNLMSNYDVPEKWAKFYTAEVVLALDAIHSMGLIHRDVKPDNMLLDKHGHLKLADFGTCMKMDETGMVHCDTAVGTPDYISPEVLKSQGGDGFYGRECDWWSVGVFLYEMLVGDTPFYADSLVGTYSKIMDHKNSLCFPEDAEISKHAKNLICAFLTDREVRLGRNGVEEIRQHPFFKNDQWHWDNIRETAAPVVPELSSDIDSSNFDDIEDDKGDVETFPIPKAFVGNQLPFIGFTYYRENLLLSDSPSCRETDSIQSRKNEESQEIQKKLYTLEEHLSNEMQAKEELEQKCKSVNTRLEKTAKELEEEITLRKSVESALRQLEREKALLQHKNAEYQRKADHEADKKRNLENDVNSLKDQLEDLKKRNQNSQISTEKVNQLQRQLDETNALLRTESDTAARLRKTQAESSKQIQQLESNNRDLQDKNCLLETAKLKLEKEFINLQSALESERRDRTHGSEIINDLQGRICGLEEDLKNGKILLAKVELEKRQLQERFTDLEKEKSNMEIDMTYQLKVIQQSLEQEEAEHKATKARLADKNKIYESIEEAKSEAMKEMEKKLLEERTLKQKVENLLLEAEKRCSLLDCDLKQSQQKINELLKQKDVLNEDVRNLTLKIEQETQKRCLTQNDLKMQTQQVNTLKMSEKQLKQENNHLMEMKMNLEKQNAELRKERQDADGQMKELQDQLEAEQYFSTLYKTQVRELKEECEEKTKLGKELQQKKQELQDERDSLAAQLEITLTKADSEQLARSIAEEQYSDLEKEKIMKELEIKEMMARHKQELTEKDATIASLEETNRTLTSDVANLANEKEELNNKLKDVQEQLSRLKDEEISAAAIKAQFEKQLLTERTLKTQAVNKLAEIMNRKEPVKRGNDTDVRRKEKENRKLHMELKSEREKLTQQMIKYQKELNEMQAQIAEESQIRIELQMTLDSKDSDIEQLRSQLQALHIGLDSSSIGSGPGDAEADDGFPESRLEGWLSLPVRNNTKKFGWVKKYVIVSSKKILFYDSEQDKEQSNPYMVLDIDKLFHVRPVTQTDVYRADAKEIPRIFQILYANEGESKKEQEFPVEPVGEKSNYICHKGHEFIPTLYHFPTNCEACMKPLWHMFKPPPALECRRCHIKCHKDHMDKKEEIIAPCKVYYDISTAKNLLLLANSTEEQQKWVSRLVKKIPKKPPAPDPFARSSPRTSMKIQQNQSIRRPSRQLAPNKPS

`CONC(=O)C(N)c1ccc(C(=O)Nc2ccncc2)cc1` (stereo not drawn) [Compound 41, 4-(amino-methoxycarbamoyl-methyl)-N-pyridin-4-yl-benzamide] was tested. Which IC50 did it give?
Its IC50 is 0.5 to 5 µM.

`CN(CCO)C(=O)C(N)c1ccc(C(=O)Nc2ccncc2)cc1` (stereo not drawn) [Compound 42, 4-{amino-[(2-hydroxy-ethyl)-methyl-carbamoyl]-methyl}-N-pyridin-4-yl-benzamide] was tested. Which IC50 did it give?
Its IC50 is 0.5 to 5 µM.

`COCC(C)NC(=O)C(N)c1ccc(C(=O)Nc2ccncc2)cc1` (stereo not drawn) [Compound 43, 4-[amino-(2-methoxy-1-methyl-ethylcarbamoyl)-methyl]-N-pyridin-4-yl-benzamide] was tested. Which IC50 did it give?
The IC50 was 0.5 to 5 µM.

`CN(C)CCNC(=O)C(N)c1ccc(C(=O)Nc2ccncc2)cc1` (stereo not drawn) [Compound 44] was tested. Which IC50 did it give?
Its IC50 is 0.5 to 5 µM.

For `NC(C(=O)NCCN1CCOCC1)c1ccc(C(=O)Nc2ccncc2)cc1` (stereo not drawn) [Compound 45, 4-[amino-(2-morpholin-4-yl-ethylcarbamoyl)-methyl]-N-pyridin-4-yl-benzamide], which IC50 is on record?
Its IC50 is 0.5 to 5 µM.

Which IC50 does the source give for `CC(C)N1CCN(C(=O)C(N)c2ccc(C(=O)Nc3ccncc3)cc2)CC1` (stereo not drawn) [Compound 46, 4-[1-amino-2-(4-isopropyl-piperazin-1-yl)-2-oxo-ethyl]-N-pyridin-4-yl-benzamide] here?
The IC50 was 0.5 to 5 µM.

With `NC(C(=O)N1CCN(c2ccccc2)CC1)c1ccc(C(=O)Nc2ccncc2)cc1` (stereo not drawn) [Compound 47, 4-[1-amino-2-oxo-2-(4-phenyl-piperzin-1-yl)-ethyl]-N-pyridin-4-yl-benzamide] as the compound, how does the IC50 read?
Its IC50 is 0.5 to 5 µM.

How did the IC50 turn out when `NC(C(=O)N1CCN(Cc2ccccc2F)CC1)c1ccc(C(=O)Nc2ccncc2)cc1` (stereo not drawn) [Compound 48, 4-{1-amino-2-[4-(2-fluoro-benzyl)-piperazin-1-yl]-2-oxo-ethyl}-N-pyridin-4-yl-benzamide] was run?
The IC50 was 0.5 to 5 µM.

Which IC50 does the source give for `NC(C(=O)N1CCN(Cc2ccc(F)cc2)CC1)c1ccc(C(=O)Nc2ccncc2)cc1` (stereo not drawn) [Compound 49, 4-{1-amino-2-[4-(4-fluoro-benzyl)-piperazin-1-yl]-2-oxo-ethyl}-N-pyridin-4-yl-benzamide] here?
The IC50 was 0.5 to 5 µM.

With `COc1ccc(CN2CCN(C(=O)C(N)c3ccc(C(=O)Nc4ccncc4)cc3)CC2)cc1` (stereo not drawn) [Compound 50, 4-{1-amino-2-[4-(4-methoxy-benzyl)-piperazin-1-yl]-2-oxo-ethyl}-N-pyridin-4-yl-benzamide] as the compound, how does the IC50 read?
The IC50 was 0.5 to 5 µM.

`NC(C(=O)NC1CCN(Cc2ccccc2)CC1)c1ccc(C(=O)Nc2ccncc2)cc1` (stereo not drawn) [Compound 51, 4-{amino-[1-benzyl-piperidin-4-ylcarbamoyl]-methyl}-N-pyridin-4-yl-benzamide] was tested. Which IC50 did it give?
The IC50 was 0.5 to 5 µM.

Which IC50 does the source give for `NC(C(=O)N1CCN(CCO)CC1)c1ccc(C(=O)Nc2ccncc2)cc1` (stereo not drawn) [Compound 52, 4-{1-amino-2-[4-(2-hydroxy-ethyl)-piperazin-1-yl]-2-oxo-ethyl}-N-pyridin-4-yl-benzamide] here?
Its IC50 is 0.5 to 5 µM.

`Cc1ccc(CN2CCC(NC(=O)C(N)c3ccc(C(=O)Nc4ccncc4)cc3)CC2)s1` (stereo not drawn) [Compound 53, 4-{amino-[1-(5-methyl-thiophen-2-ylmethyl)-piperidin-4-ylcarbamoyl]-methyl}-N-pyridin-4-yl-benzamide] was tested. Which IC50 did it give?
The IC50 was 0.5 to 5 µM.

How did the IC50 turn out when `CCCCNNC(=O)C(N)c1ccc(C(=O)Nc2ccncc2)cc1` (stereo not drawn) [Compound 54, 4-[amino-(N′-butyl-hydrazinocarbonyl)-methyl]-N-pyridin-4-yl-benzamide] was run?
Its IC50 is < 0.5 µM.

same assay, conditions: Table 2, compounds of Formula V20

With `CS(=O)(=O)NCC(N)c1ccc(C(=O)Nc2ccncc2)cc1` (stereo not drawn) [Compound 55, 4-(1-amino-2-methanesulfonylamino-ethyl)-N-pyridin-4-yl-benzamide] as the compound, how does the IC50 read?
Its IC50 is < 0.5 µM.

With `CCS(=O)(=O)NCC(N)c1ccc(C(=O)Nc2ccncc2)cc1` (stereo not drawn) [Compound 56] as the compound, how does the IC50 read?
The IC50 was < 0.5 µM.

How did the IC50 turn out when `CCCS(=O)(=O)NCC(N)c1ccc(C(=O)Nc2ccncc2)cc1` (stereo not drawn) [Compound 57, 4-[1-amino-2-(propane-1-sulfonylamino)-ethyl]-N-pyridin-4-yl-benzamide] was run?
Its IC50 is < 0.5 µM.

For `CCCCS(=O)(=O)NCC(N)c1ccc(C(=O)Nc2ccncc2)cc1` (stereo not drawn) [Compound 58, 4-[1-amino-2-(butane-1-sulfonylamino)-ethyl]-N-pyridin-4-yl-benzamide], which IC50 is on record?
Its IC50 is < 0.5 µM.

How did the IC50 turn out when `CCCCCCCCS(=O)(=O)NCC(N)c1ccc(C(=O)Nc2ccncc2)cc1` (stereo not drawn) [Compound 59, 4-[1-amino-2-(octane-1-sulfonylamino)-ethyl]-N-pyridin-4-yl-benzamide] was run?
The IC50 was 0.5 to 5 µM.

`NC(CNS(=O)(=O)Cc1ccccc1)c1ccc(C(=O)Nc2ccncc2)cc1` (stereo not drawn) [Compound 60, 4-(1-amino-2-phenylmethanesulfonylamino-ethyl)-N-pyridin-4-yl-benzamide] was tested. Which IC50 did it give?
The IC50 was < 0.5 µM.

With `NC(CNS(=O)(=O)c1ccccc1)c1ccc(C(=O)Nc2ccncc2)cc1` (stereo not drawn) [Compound 61, 4-(1-amino-2-benzenesulfonylamino-ethyl)-N-pyridin-4-yl-benzamide] as the compound, how does the IC50 read?
The IC50 was < 0.5 µM.

Which IC50 does the source give for `Cc1ccc(S(=O)(=O)NCC(N)c2ccc(C(=O)Nc3ccncc3)cc2)cc1` (stereo not drawn) [Compound 62, 4-[1-amino-2-(4-methyl-benzenesulfonylamino)-ethyl]-N-pyridin-4-yl-benzamide] here?
Its IC50 is < 0.5 µM.

How did the IC50 turn out when `Cc1cccc(S(=O)(=O)NCC(N)c2ccc(C(=O)Nc3ccncc3)cc2)c1` (stereo not drawn) [Compound 63] was run?
The IC50 was < 0.5 µM.

How did the IC50 turn out when `Cc1ccccc1S(=O)(=O)NCC(N)c1ccc(C(=O)Nc2ccncc2)cc1` (stereo not drawn) [Compound 64, 4-[1-amino-2-(2-methyl-benzenesulfonylamino)-ethyl]-N-pyridin-4-yl-benzamide] was run?
The IC50 was < 0.5 µM.

For `NC(CNS(=O)(=O)c1ccc(F)cc1)c1ccc(C(=O)Nc2ccncc2)cc1` (stereo not drawn) [Compound 65, 4-[1-amino-2-(4-fluoro-benzenesulfonylamino)-ethyl]-N-pyridin-4-yl-benzamide], which IC50 is on record?
The IC50 was < 0.5 µM.

With `NC(CNS(=O)(=O)c1ccccc1F)c1ccc(C(=O)Nc2ccncc2)cc1` (stereo not drawn) [Compound 66, 4-[1-amino-2-(2-fluoro-benzenesulfonylamino)-ethyl]-N-pyridin-4-yl-benzamide] as the compound, how does the IC50 read?
Its IC50 is < 0.5 µM.

With `NC(CNS(=O)(=O)c1ccc(Cl)cc1)c1ccc(C(=O)Nc2ccncc2)cc1` (stereo not drawn) [Compound 67, 4-[1-amino-2-(4-chloro-benzenesulfonylamino)-ethyl]-N-pyridin-4-yl-benzamide] as the compound, how does the IC50 read?
Its IC50 is < 0.5 µM.

With `NC(CNS(=O)(=O)c1cccc(Cl)c1)c1ccc(C(=O)Nc2ccncc2)cc1` (stereo not drawn) [Compound 68, 4-[1-amino-2-(3-chloro-benzenesulfonylamino)-ethyl]-N-pyridin-4-yl-benzamide] as the compound, how does the IC50 read?
Its IC50 is < 0.5 µM.

With `NC(CNS(=O)(=O)c1ccccc1Cl)c1ccc(C(=O)Nc2ccncc2)cc1` (stereo not drawn) [Compound 69, 4-[1-amino-2-(2-chloro-benzenesulfonylamino)-ethyl]-N-pyridin-4-yl-benzamide] as the compound, how does the IC50 read?
Its IC50 is < 0.5 µM.

Which IC50 does the source give for `COc1ccc(S(=O)(=O)NCC(N)c2ccc(C(=O)Nc3ccncc3)cc2)cc1` (stereo not drawn) [Compound 70, 4-[1-amino-2-(4-methoxy-benzenesulfonylamino)-ethyl]-N-pyridin-4-yl-benzamide] here?
The IC50 was < 0.5 µM.

`COc1ccc(S(=O)(=O)NCC(N)c2ccc(C(=O)Nc3ccncc3)cc2)cc1OC` (stereo not drawn) [Compound 71, 4-[1-amino-2-(3,4-dimethoxy-benzenesulfonylamino)-ethyl]-N-pyridin-4-yl-benzamide] was tested. Which IC50 did it give?
The IC50 was < 0.5 µM.

How did the IC50 turn out when `COc1ccc(OC)c(S(=O)(=O)NCC(N)c2ccc(C(=O)Nc3ccncc3)cc2)c1` (stereo not drawn) [Compound 72, 4-[1-amino-2-(2,5-dimethoxy-benzenesulfonylamino)-ethyl]-N-pyridin-4-yl-benzamide] was run?
The IC50 was < 0.5 µM.

Which IC50 does the source give for `NC(CNS(=O)(=O)c1cccc(Oc2ccccc2)c1)c1ccc(C(=O)Nc2ccncc2)cc1` (stereo not drawn) [Compound 73, 4-[1-amino-2-(3-phenoxy-benzenesulfonylamino)-ethyl]-N-pyridin-4-yl-benzamide] here?
Its IC50 is 0.5 to 5 µM.
